Tests used:
Assay in all cases: relative viability (nuclei count vs DMSO), 5 days (fraction); higher = more cells survive
[1] = compound: CC1=C(C=C(C=C1)NC(=O)C2=CC(=CC=C2)C(C)(C)C#N)NC3=CC4=C(C=C3)N=CN(C4=O)C [AZ628] + Cc1nc(NC(=O)N2CCC[C@H]2C(N)=O)sc1-c1ccnc(C(C)(C)C(F)(F)F)c1 [Alpelisib] (partner 2 µM)
Summary of the method: (§1)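 A single step with final 0.05% Triton X-100, 1% formaldehyde and 1 ug/ml Hoechst fixed the cells and stained nuclei 5 days after treatment. Lung cancer cell lines in 1536-well plates had been treated by pin tool the day after seeding with one drug alone or a fixed anchor-drug dose plus five library-drug doses (not always all listed) in √10 steps, and nuclei were counted on 4× images. Relative viability is the ratio of nuclei in treated wells to nuclei in vehicle wells, taken as the median of duplicate plates.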

[2] = compound: CC1=C(C=C(C=C1)NC(=O)C2=CC(=CC=C2)C(C)(C)C#N)NC3=CC4=C(C=C3)N=CN(C4=O)C [AZ628] + O=C(CCCCCCC(=O)Nc1ccccc1)NO [Vorinostat] (partner 1 µM)
Summary of the method: as §1

[3] = compound: C[As](C)SC[C@H](NC(=O)CC[C@H](N)C(=O)O)C(=O)NCC(=O)O [Darinaparsin] + Cc1cc(Nc2cc(N3CCN(C)CC3)nc(Sc3ccc(NC(=O)C4CC4)cc3)n2)n[nH]1 [Tozasertib] (partner 0.1 µM)
Summary of the method: as §1

[4] = compound: C[As](C)SC[C@H](NC(=O)CC[C@H](N)C(=O)O)C(=O)NCC(=O)O [Darinaparsin] + Cc1nc(Nc2ncc(C(=O)Nc3c(C)cccc3Cl)s2)cc(N2CCN(CCO)CC2)n1 [Dasatinib] (partner 0.075 µM)
Summary of the method: as §1

Cell Line	relative viability ([1]; first compound 0.08 µM)	relative viability ([1]; first compound 0.253 µM)	relative viability ([1]; first compound 0.8 µM)	relative viability ([1]; first compound 2.53 µM)	relative viability ([1]; first compound 8 µM)	relative viability ([2]; first compound 0.08 µM)	relative viability ([2]; first compound 0.253 µM)	relative viability ([2]; first compound 0.8 µM)	relative viability ([2]; first compound 2.53 µM)	relative viability ([2]; first compound 8 µM)	relative viability ([3]; first compound 0.08 µM)	relative viability ([3]; first compound 0.8 µM)	relative viability ([3]; first compound 2.53 µM)	relative viability ([3]; first compound 8 µM)	relative viability ([4]; first compound 0.08 µM)	relative viability ([4]; first compound 0.8 µM)	relative viability ([4]; first compound 2.53 µM)	relative viability ([4]; first compound 8 µM)
NCI-H460	0.459	0.335	0.325	0.271	0.13	0.728	0.715	0.644	0.641	0.24	0.735	0.438	0.326	0.792	0.632	0.478	0.473	0.721
NCI-H520	0.908	0.826	0.733	0.819	0.52	0.684	0.628	0.702	0.81	0.716	0.468	0.369	0.348	0.409	0.215	0.237	0.189	0.212
NCI-H596	0.504	0.553	0.567	0.498	0.422	0.559	0.594	0.69	0.686	0.682	1.13	0.958	0.872	0.979	0.624	0.625	0.632	0.566
NCI-H647	1.3	0.952	0.842	1.09	0.858	0.54	0.845	0.524	0.833	0.488	0.0828	0.282	0.232	0.385	0.21	0.205	0.149	0.233
NCI-H650	1.32	1.44	1.38	1.29	0.939	0.454	0.63	0.554	0.673	0.44	0.788	0.693	0.792	0.807	0.529	0.515	0.42	0.486
NCI-H661	0.647	0.401	0.497	0.598	0.363	0.831	0.916	0.818	0.778	0.743	0.357	0.351	0.377	0.361	0.981	0.772	0.89	0.948
NCI-H727	0.499	0.308	0.301	0.318	0.23	1.25	–	–	0.891	0.352	0.731	0.552	0.699	0.599	0.401	0.356	0.414	0.416
NCI-H838	1.03	0.991	0.953	0.92	0.841	0.753	0.72	0.677	0.722	0.718	0.275	0.24	0.256	0.304	0.301	0.286	0.271	0.338
NCI-H1355	0.849	0.742	0.737	0.685	0.558	0.69	0.623	0.581	0.598	0.418	0.571	0.568	0.44	0.499	0.717	0.69	0.596	0.689
NCI-H1395	1.19	1.2	1.03	0.991	0.915	0.936	0.61	0.665	0.62	0.607	0.839	0.771	0.765	0.723	0.438	0.377	0.427	0.405
NCI-H1437	0.958	0.976	1.02	1.01	0.988	0.834	0.765	0.752	0.829	0.776	0.439	0.394	0.353	0.434	0.482	0.375	0.286	0.48
NCI-H1651	1.12	1.02	0.84	0.884	0.995	0.584	0.491	0.573	0.559	0.561	0.911	0.739	0.633	0.918	0.51	0.476	0.365	0.416
NCI-H1666	0.79	0.765	0.522	0.534	0.425	1.07	0.953	0.995	0.764	0.916	0.623	0.612	0.745	0.579	0.817	0.814	0.799	0.832
NCI-H1734	0.658	0.595	0.571	0.619	0.498	0.923	0.773	0.761	0.772	0.463	0.276	0.257	0.256	0.297	0.461	0.441	0.44	0.49
NCI-H1755	0.923	0.878	0.887	0.822	0.792	0.78	0.779	0.84	0.755	0.679	0.576	0.471	0.483	0.616	0.438	0.448	0.346	0.468
NCI-H1793	0.921	0.75	0.684	0.564	0.593	0.969	0.632	0.835	0.602	0.484	0.344	0.305	0.278	0.385	0.421	0.366	0.348	0.424
NCI-H1915	1.09	1.04	0.911	0.708	0.564	0.549	0.606	0.537	0.461	0.462	0.502	0.479	0.427	0.435	0.329	0.32	0.317	0.323
NCI-H1944	0.855	0.718	0.673	0.68	0.586	0.613	0.547	0.508	0.468	0.444	0.245	0.263	0.251	0.243	0.203	0.2	0.208	0.192
NCI-H1975	0.603	0.701	0.594	0.66	0.328	0.62	0.668	0.679	0.658	0.42	1.12	0.804	0.783	0.905	0.42	0.404	0.388	0.386
NCI-H1993	0.73	0.61	0.662	0.631	0.739	0.751	0.774	0.812	0.62	0.547	0.598	0.585	0.549	0.557	0.68	0.532	0.535	0.575
NCI-H2009	1.01	0.895	0.692	1.03	0.34	0.595	0.783	0.568	0.612	0.405	0.927	0.682	0.731	0.884	0.307	0.32	0.266	0.233
NCI-H2023	0.653	0.558	0.617	0.688	0.324	0.825	0.61	0.542	0.636	0.405	0.696	0.306	0.357	0.425	0.724	0.656	0.352	0.729
NCI-H2085	1.06	0.965	1.03	0.856	0.714	0.845	0.788	0.891	0.826	0.736	0.953	0.814	0.78	0.892	0.238	0.25	0.235	0.223
NCI-H2087	0.783	0.73	0.62	0.678	0.231	1.02	0.723	0.743	0.527	0.148	0.243	0.246	0.254	0.22	1.11	0.906	0.793	1.52
NCI-H2126	0.819	0.734	0.83	0.783	0.653	0.862	0.786	0.642	0.729	0.703	0.935	0.794	0.69	0.878	0.56	0.616	0.556	0.681
NCI-H2170	0.931	0.751	0.809	0.852	0.98	0.804	0.833	0.786	0.837	0.905	0.667	0.793	0.617	1.03	0.65	0.612	0.481	0.647
NCI-H2228	0.697	0.984	0.656	0.888	0.351	0.697	0.684	0.644	0.507	0.432	0.217	0.217	0.286	0.235	0.71	0.606	0.447	0.686
NCI-H2347	0.679	0.934	0.779	0.822	0.471	0.46	0.642	0.447	0.439	0.335	0.587	–	0.555	0.469	0.286	–	0.306	0.289
NCI-H2405	0.313	0.447	0.444	0.352	0.406	0.884	0.8	0.69	0.707	0.586	0.777	0.776	0.703	0.889	0.203	0.232	0.223	0.221
